{"source": "patent US6602525B1", "about": "(The Procter & Gamble Company, priority 2001, dated 2003)", "format_in_all_cases": "cell-based", "key": {"Enterococcus faecalis [1]": {"system": "Enterococcus faecalis", "experiment": "Checkerboard synergy test, nitrofurantoin and uva ursi", "details": "E. faecalis isolates 21-30", "description": "(§1) The checkerboard (or chessboard) method is used to assess the antimicrobial combination in vitro against the following selection of Gram-positive and Gram-negative pathogens including: Escherichia coli, Klebsiella pneumoniae, Proteus mirabilis, Serratia marcescens, Staphylococcus saprophyticus, Pseudomonas aeruginosa, and Enterococcus faecalis. […] Furthermore, the combination of nitrofurantoin and uva ursi is synergistic against four of the seven species tested, in particular E. coli, S. marcescens, P. mirabilis, and P. aeruginosa. […] [table] […] Following testing, the FIC index was calculated for each isolate panel to determine whether synergy, additivity, or antagonism occurred. […] For additivity, the FIC index is 1. For antagonism, the FIC index is 2."}, "Proteus mirabilis": {"system": "Proteus mirabilis", "experiment": "Checkerboard synergy test, nitrofurantoin and uva ursi", "details": "nitrofurantoin alone, P. mirabilis isolates 41-50", "description": "as §1"}, "Pseudomonas aeruginosa [2]": {"system": "Pseudomonas aeruginosa", "experiment": "Checkerboard synergy test, nitrofurantoin and uva ursi", "details": "P. aeruginosa isolates 1-10", "description": "as §1"}, "[3]": {"system": "Staphylococcus saprophyticus", "experiment": "Checkerboard synergy test, nitrofurantoin and uva ursi", "details": "nitrofurantoin alone, S. saprophyticus isolates 61-70", "description": "as §1"}, "Enterococcus faecalis [4]": {"system": "Enterococcus faecalis", "experiment": "Pre-test MIC, NCCLS microbroth dilution", "details": "nitrofurantoin alone, E. faecalis, one value per isolate (Isolate ID 21-30)", "description": "(§2) Methods for Dilution Antimicrobial Susceptibility Tests for Bacteria That Grow Aerobically; Approved Standard (Fifth Edition) (2000). These standards are as follows: [table] Nitrofurantoin was added to cation-adjusted Mueller-Hinton Broth (hereinafter “CAMHB”) and dissolved. […] The uva ursi extract was serially diluted in water. For each test concentration, the final dilution was performed in CAMHB providing dilutions of 1:20 to 1:2048."}, "Pseudomonas aeruginosa [5]": {"system": "Pseudomonas aeruginosa", "experiment": "Pre-test MIC, NCCLS microbroth dilution", "description": "as §2"}, "Serratia marcescens": {"system": "Serratia marcescens", "experiment": "Pre-test MIC, NCCLS microbroth dilution", "details": "nitrofurantoin alone, S. marcescens, one value per isolate (Isolate ID 11-20)", "description": "as §2"}, "[6]": {"system": "Staphylococcus saprophyticus", "experiment": "Pre-test MIC, NCCLS microbroth dilution", "details": "nitrofurantoin alone, S. saprophyticus, one value per isolate (Isolate ID 61-70)", "description": "as §2"}, "[7]": {"details": "checkerboard, nitrofurantoin alone"}}, "note": "“And” between values parts separate entries of the source, which are not always exact repeats. Equal values may be shown once.", "data": [{"molecule": "O=C1CN(/N=C/c2ccc([N+](=O)[O-])o2)C(=O)N1", "note": "[Nitrofurantoin, N-(5-nitro-2-furfurylidene)-1-aminohydantoin]", "values": [{"measurement": "MIC", "setting": "Enterococcus faecalis [1]; Enterococcus faecalis, read-out: MIC Nitrofurantoin, checkerboard, nitrofurantoin alone", "result": 16, "unit": "µg/mL"}, {"measurement": "MIC Nitrofurantoin", "setting": "Enterococcus faecalis [1]; [7]", "result": 8, "unit": "µg/mL"}, {"measurement": "MIC Nitrofurantoin", "setting": "Proteus mirabilis", "result": 128, "unit": "µg/mL"}, {"measurement": "MIC", "setting": "Pseudomonas aeruginosa [2]; Pseudomonas aeruginosa, read-out: MIC Nitrofurantoin, checkerboard, nitrofurantoin alone", "result": "> 512", "unit": "µg/mL"}, {"measurement": "MIC Nitrofurantoin", "setting": "Pseudomonas aeruginosa [2]; [7]", "result": ">512 µg/mL and 512 µg/mL"}, {"measurement": "MIC Nitrofurantoin", "setting": "[3]", "result": 8, "unit": "µg/mL"}, {"measurement": "MIC Nitrofurantoin", "setting": "Enterococcus faecalis [4]", "result": "8 to 64", "unit": "µg/mL"}, {"measurement": "MIC", "setting": "Pseudomonas aeruginosa [5]; Pseudomonas aeruginosa, read-out: Nitrofurantoin MIC", "result": "> 512", "unit": "µg/mL"}, {"measurement": "Nitrofurantoin MIC", "setting": "Pseudomonas aeruginosa [5]; pre-test, nitrofurantoin alone, P. aeruginosa, one value per isolate (Isolate ID 1-10)", "result": ">512", "unit": "µg/mL"}, {"measurement": "MIC Nitrofurantoin", "setting": "Serratia marcescens", "result": "64 to 512", "unit": "µg/mL"}, {"measurement": "MIC Nitrofurantoin", "setting": "[6]", "result": "8 to 32", "unit": "µg/mL"}]}]}
